In patent US6747033B2, “Fungicidal triazolopyrimid-7-ylideneamines” (BASF Aktiengesellschaft, priority 2000, dated 2004):
Like-named read-outs stand apart in the source and are kept apart here.

Experiments:
Venturia inaequalis = assay: In vivo fungicidal activity, Apple Scab (AS); note: ranges in brackets are in %
Plasmopara viticola = assay: In vivo fungicidal activity, Grape downy mildew (GDM); note: ranges in brackets are in %
Botrytis cinera = assay: In vivo fungicidal activity, Pepper Botrytis (PB); note: ranges in brackets are in %
[1] = tested on: Pyricularia grisea f. sp. oryzae; type: in vivo; conditions: Rice Blast
Cercospora beticola = assay: In vivo fungicidal activity, Sugar Beet Cercospora (SBC); note: ranges in brackets are in %
Alternara solani = assay: In vivo fungicidal activity, Tomato early blight (TEB); note: ranges in brackets are in %
Blumeria graminis = assay: In vivo fungicidal activity, Wheat powdery mildew (WPM); note: ranges in brackets are in %
[2] = tested on: Pseudocercosporella herpotrichoides; assay: In vitro fungicidal activity, Cereal eye spot (PSDCHE); type: cell-based; set-up: key: 0: None; 3: slight; 5: moderate; 7: severe; 9: complete; conditions: 3-7 days of incubation
Experimental: (§1) Test compounds are dissolved in acetone to give concentrations of 25, 10 and 1 ppm and are added to individual cell Walls (24-cell-well plates, Corning), which were previously filled with a suspension of ground plates, Corning), which were previously filled with a suspension of ground fungal mycelium in a chemically defined growth medium. After 3-7 days of incubation, inhibition of […] growth is recorded using the following scale: The data obtained are shown in Table II. [table]

Pythium ultimum = assay: In vitro fungicidal activity, Fruit rot (PYTHUL); type: cell-based; set-up: key: 0: None; 3: slight; 5: moderate; 7: severe; 9: complete; conditions: 3-7 days of incubation
Experimental: as §1

Rhizoctonia solani = assay: In vitro fungicidal activity, Rice sheath blight (RHIZSO); type: cell-based; set-up: key: 0: None; 3: slight; 5: moderate; 7: severe; 9: complete; conditions: 3-7 days of incubation
Experimental: as §1

Structure (SMILES)	AS disease control rating (Venturia inaequalis; 12.5 ppm spray)	AS disease control rating (Venturia inaequalis; 50 ppm spray)	AS disease control rating (Venturia inaequalis; 200 ppm spray)	GDM disease control rating (Plasmopara viticola; 12.5 ppm spray)	GDM disease control rating (Plasmopara viticola; 50 ppm spray)	GDM disease control rating (Plasmopara viticola; 200 ppm spray)	PB disease control rating (Botrytis cinera; 12.5 ppm spray)	PB disease control rating (Botrytis cinera; 50 ppm spray)	PB disease control rating (Botrytis cinera; 200 ppm spray)	RB disease control rating ([1]; 12.5 ppm spray)	RB disease control rating ([1]; 50 ppm spray)	RB disease control rating ([1]; 200 ppm spray)	SBC disease control rating (Cercospora beticola; 12.5 ppm spray)	SBC disease control rating (Cercospora beticola; 50 ppm spray)	TEB disease control rating (Alternara solani; 12.5 ppm spray)	TEB disease control rating (Alternara solani; 50 ppm spray)	TEB disease control rating (Alternara solani; 200 ppm spray)	WPM disease control rating (Blumeria graminis; 12.5 ppm spray)	WPM disease control rating (Blumeria graminis; 50 ppm spray)	WPM disease control rating (Blumeria graminis; 200 ppm spray)	other results
Cn1c(Cl)c(-c2c(F)cc(F)cc2F)c(=NCC(F)(F)F)n2ncnc12 [Example 1A, N-(5-chloro-4-methyl-6-(2,4,6-trifluorophenyl)-4H[1,2,4]triazolo[1,5-α]pyrimidin-7-ylidene]-N-(2,2,2-trifluoroethyl)-amine]	0 (0)	6 (75-89)	9 (100)	5 (60-74)	6 (75-89)	4 (45-59)	0 (0)	5 (60-74)	0 (0)	0 (0)	0 (0)	6 (75-89)	0 (0)	6 (75-89)	0 (0)	0 (0)	3 (30-44)	0 (0)	7 (90-95)	8 (96-99)	SBC disease control rating (Cercospora beticola; 200 ppm spray): 8 (96-99); PSDCH inhibition of mycelial growth rating ([2]; 1 ppm): 0; PSDCH inhibition of mycelial growth rating ([2]; 10 ppm): 0; PSDCH inhibition of mycelial growth rating ([2]; 25 ppm): 0; PYTHU inhibition of mycelial growth rating (Pythium ultimum; 1 ppm): 0; PYTHU inhibition of mycelial growth rating (Pythium ultimum; 10 ppm): 0; PYTHU inhibition of mycelial growth rating (Pythium ultimum; 25 ppm): 0; RHIZSO inhibition of mycelial growth rating (Rhizoctonia solani; 1 ppm): 5; RHIZSO inhibition of mycelial growth rating (Rhizoctonia solani; 10 ppm): 7; RHIZSO inhibition of mycelial growth rating (Rhizoctonia solani; 25 ppm): 7
CCCn1c(Cl)c(-c2c(F)cc(F)cc2F)c(=NC(C)C(F)(F)F)n2ncnc12 (stereo not drawn) [Example 2]	0 (0)	0 (0)	5 (60-74)	4 (45-59)	2 (15-29)	1 (1-14)	1 (1-14)	1 (1-14)	1 (1-14)	0 (0)	0 (0)	0 (0)	0 (0)	0 (0)	0 (0)	0 (0)	0 (0)	0 (0)	0 (0)	0 (0)	SBC disease control rating (Cercospora beticola; 200 ppm spray): 3 (30-44)
CCn1c(Cl)c(-c2c(F)cc(F)cc2F)c(=NC(C)C(F)(F)F)n2ncnc12 (stereo not drawn) [Example 3]	0 (0)	0 (0)	6 (75-89)	0 (0)	4 (45-59)	4 (45-59)	2 (15-29)	0 (0)	0 (0)	0 (0)	0 (0)	5 (60-74)	0 (0)	0 (0)	3 (30-44)	3 (30-44)	0 (0)	0 (0)	0 (0)	3 (30-44)	SBC disease control rating (Cercospora beticola; 200 ppm spray): 0 (0); PSDCH inhibition of mycelial growth rating ([2]; 1 ppm): 0; PSDCH inhibition of mycelial growth rating ([2]; 10 ppm): 1; PSDCH inhibition of mycelial growth rating ([2]; 25 ppm): 1; PYTHU inhibition of mycelial growth rating (Pythium ultimum; 1 ppm): 0; PYTHU inhibition of mycelial growth rating (Pythium ultimum; 10 ppm): 0; PYTHU inhibition of mycelial growth rating (Pythium ultimum; 25 ppm): 0; RHIZSO inhibition of mycelial growth rating (Rhizoctonia solani; 1 ppm): 3; RHIZSO inhibition of mycelial growth rating (Rhizoctonia solani; 10 ppm): 5; RHIZSO inhibition of mycelial growth rating (Rhizoctonia solani; 25 ppm): 5
CCCn1c(Cl)c(-c2c(F)cc(OC)cc2F)c(=NC(C)C(F)(F)F)n2ncnc12 (stereo not drawn) [Example 4]	0 (0)	0 (0)		0 (0)	0 (0)		0 (0)	0 (0)		0 (0)	0 (0)		0 (0)	0 (0)	0 (0)	0 (0)		0 (0)	0 (0)		AS disease control rating (Venturia inaequalis; 3.1 ppm spray): 0 (0); GDM disease control rating (Plasmopara viticola; 3.1 ppm spray): 4 (45-59); PB disease control rating (Botrytis cinera; 3.1 ppm spray): 0 (0); RB disease control rating ([1]; 3.1 ppm spray): 0 (0); SBC disease control rating (Cercospora beticola; 3.1 ppm spray): 0 (0); TEB disease control rating (Alternara solani; 3.1 ppm spray): 3 (30-44); WPM disease control rating (Blumeria graminis; 3.1 ppm spray): 0 (0)
CCCn1cnn2c(=NC(C)C(F)(F)F)c(-c3c(F)cc(OC)cc3F)c(Cl)nc12 (stereo not drawn) [Example 12]	0 (0)	0 (0)	0 (0)	0 (0)	0 (0)	0 (0)	0 (0)	0 (0)	0 (0)	0 (0)	0 (0)	0 (0)	0 (0)	0 (0)	0 (0)	0 (0)	0 (0)	0 (0)	0 (0)	0 (0)	SBC disease control rating (Cercospora beticola; 200 ppm spray): 0 (0)
Cn1c(Cl)c(-c2c(F)cc(F)cc2F)c(=NCC(F)(F)F)n2ncnc12 [Example 17]	0 (0)	2 (15-29)	6 (75-89)	0 (0)	0 (0)	5 (60-74)	0 (0)	0 (0)	0 (0)	0 (0)	3 (30-44)	4 (45-59)			0 (0)	0 (0)	0 (0)	0 (0)	2 (15-29)	6 (75-89)	PSDCH inhibition of mycelial growth rating ([2]; 1 ppm): 0; PSDCH inhibition of mycelial growth rating ([2]; 10 ppm): 1; PSDCH inhibition of mycelial growth rating ([2]; 25 ppm): 3; PYTHU inhibition of mycelial growth rating (Pythium ultimum; 1 ppm): 0; PYTHU inhibition of mycelial growth rating (Pythium ultimum; 10 ppm): 5; PYTHU inhibition of mycelial growth rating (Pythium ultimum; 25 ppm): 7; RHIZSO inhibition of mycelial growth rating (Rhizoctonia solani; 1 ppm): 7; RHIZSO inhibition of mycelial growth rating (Rhizoctonia solani; 10 ppm): 7; RHIZSO inhibition of mycelial growth rating (Rhizoctonia solani; 25 ppm): 7
